Patent US10858360B2, “Tricyclic gyrase inhibitors” (priority 2011, dated 2020)
Converted amounts (≈) assume the structure as drawn. Read-outs that look alike come from different tables or passages of the source.

Key:
[1] = test system: S. aureus ATCC 13709; assay: MIC, S. aureus ATCC 13709 (Alamar Blue broth microdilution); format: cell-based; settings: for MIC: Staphylococcus aureus, ATCC13709, S. aureus
[2] = test system: E. coli ATCC 25922; assay: MIC, E. coli ATCC 25922; format: cell-based; settings: for MIC: Escherichia coli, ATCC25922, E. coli
[3] = Alamar Blue read after overnight incubation at 35° C.
[4] = S. aureus, Alamar Blue read after overnight incubation at 35° C.
[5] = E. coli, Alamar Blue read after overnight incubation at 35° C.

| Structure (SMILES) | MIC [1, 3] | MIC [2, 3] | MIC Sa [1, 4] | MIC Ec [2, 5] | other results |
| --- | --- | --- | --- | --- | --- |
| CNc1cc(F)cc2c1[nH]c1nc(Oc3cncc(F)c3)nc(N3CC4CNC(C4)C3)c12 (stereo not shown) [4.058] | ≤ 0.5 µg/mL | ≤ 0.5 µg/mL | – | – | – |
| CNc1cc(F)cc2c1[nH]c1nc(Oc3cnc(CC(=O)N(C)OC)nc3)nc(N3C[C@H](N)C4(CC4)C3)c12 [4.370] | ≤ 0.5 µg/mL | 1 µg/mL (≈ 1.92 µM) | – | – | – |
| CNc1cc(F)cc2c1[nH]c1nc(Oc3cnc(C)nc3)nc(N3CCC4(CC3)NC(=O)NC4=O)c12 [4.107] | – | – | >16 µg/mL | >16 µg/mL | – |
| CNc1cc(F)cc2c1[nH]c1nc(Oc3cnc4cccnc4c3)nc(N3CC4[C@H](C[C@H]4N)C3)c12 (stereo partly shown) [4.043] | ≤ 0.5 µg/mL | ≤ 0.5 µg/mL | – | – | – |
| CNc1cccc2c1[nH]c1nc(Sc3cnc4ccc[n+]([O-])c4c3)nc(N3CC4C(N)C4C3)c12 (stereo not shown) [1.66] | – | – | ≤0.13 µg/mL | ≤0.5 µg/mL | – |
| CNc1cc(F)cc2c1[nH]c1nc(Sc3cnc4ccc[n+]([O-])c4c3)nc(N3CCC4(CC4N)C3)c12 (stereo not shown) [1.64] | ≤ 0.5 µg/mL | ≤ 0.5 µg/mL | – | – | – |
| CNc1cc(F)cc2c1[nH]c1nc(Oc3cnc(C)nc3)nc(N3CC4CC(N)CC4C3)c12 (stereo not shown) [4.104] | – | – | ≤0.5 µg/mL | ≤0.5 µg/mL | – |
| CNc1cc(F)cc2c1[nH]c1nc(Oc3cnc(C)nc3)nc(N3CC4CC(N)C4C3)c12 (stereo not shown) [4.111] | – | – | ≤0.5 µg/mL | ≤0.5 µg/mL | – |
| CNc1cc(F)cc2c1[nH]c1nc(Sc3cnc4ccc[n+]([O-])c4c3)nc(N3CC(N)C4(CC4)C3)c12 (stereo not shown) [1.63] | ≤ 0.5 µg/mL | ≤ 0.5 µg/mL | – | – | – |
| CNc1cc(F)cc2c1[nH]c1nc(Oc3cnc(C4CCC4)nc3)nc(N3CC4C(N)C4C3)c12 (stereo not shown) [4.286] | ≤ 0.5 µg/mL | ≤ 0.5 µg/mL | – | – | – |
| CNc1cc(F)cc2c1[nH]c1nc(Oc3cnc4cccnc4c3)nc(N3CC4CC4(N)C3)c12 (stereo not shown) [4.036] | ≤ 0.5 µg/mL | ≤ 0.5 µg/mL | – | – | – |
| CNc1c(F)ccc2c1[nH]c1nc(Oc3cnc4cccnc4c3)nc(N3CC(N)C4(CC4)C3)c12 (stereo not shown) [6.03] | – | – | – | – | MIC Sa [1]: ≤0.5 µg/mL; MIC Ec [2]: ≤0.5 µg/mL |
| CNc1cc(F)cc2c1[nH]c1nc(Oc3cnc(C)nc3)nc(N3CC4CCC(N)CC4C3)c12 (stereo not shown) [4.093] | – | – | ≤0.5 µg/mL | 4 µg/mL (≈ 8.65 µM) | – |
| CNc1cc(F)cc2c1[nH]c1nc(Oc3cnc(C)nc3)nc(N3CC4C(C3)C4NC(=O)CN)c12 (stereo not shown) [4.078] | – | – | ≤0.5 µg/mL | 8 µg/mL (≈ 16.8 µM) | – |
| CCNc1cccc2c1[nH]c1nc(Sc3cnc4cccnc4c3)nc(N3CC4C(N)C4C3)c12 (stereo not shown) [1.11] | ≤ 0.5 µg/mL | 8 µg/mL (≈ 17.1 µM) | – | – | – |
| CNc1cc(F)cc2c1[nH]c1nc(Oc3cncnc3)nc(N3CC4CC(N)C4C3)c12 (stereo not shown) [4.026] | ≤ 0.5 µg/mL | ≤ 0.5 µg/mL | – | – | – |

| Structure (SMILES) | MIC [1, 3] | MIC [2, 3] | MIC Sa [1, 4] | MIC Ec [2, 5] | other results |
| --- | --- | --- | --- | --- | --- |
| CNc1cccc2c1[nH]c1nc(Oc3ccc4nccnc4c3)nc(N3CC4C(N)C4C3)c12 (stereo not shown) [3.31] | 2 µg/mL (≈ 4.56 µM) | 8 µg/mL (≈ 18.2 µM) | – | – | – |
| CNc1cc(F)cc2c1[nH]c1nc(Oc3cnc(C(F)(F)F)nc3)nc(N3C[C@@H]4[C@@H](N)[C@@H]4C3)c12 [4.280] | ≤ 0.5 µg/mL | ≤ 0.5 µg/mL | – | – | – |
| CNc1cc(F)cc2c1[nH]c1nc(Oc3cnc(N)nc3)nc(N3CCC4CNC4C3)c12 (stereo not shown) [4.181] | ≤ 0.5 µg/mL | 8 µg/mL (≈ 18.4 µM) | – | – | – |
| CNc1cccc2c1[nH]c1nc(Oc3cnc(C)nc3)nc(Oc3cnc(C)nc3)c12 [3.38] | 1 µg/mL (≈ 2.41 µM) | > 32 µg/mL | – | – | – |
| CNc1cc(F)cc2c1[nH]c1nc(Oc3cnc(CCO)nc3)nc(N3CC4CC3C[C@@H]4N)c12 (stereo partly shown) [4.414] | ≤ 0.5 µg/mL | 2 µg/mL (≈ 4.31 µM) | – | – | – |
| CNc1cc(F)cc2c1[nH]c1nc(Oc3cnc(C4CCC4)nc3)nc(N3CC4CC(N)C4C3)c12 (stereo not shown) [4.285] | ≤ 0.5 µg/mL | ≤ 0.5 µg/mL | – | – | – |
| CNc1cc(F)cc2c1[nH]c1nc(Oc3cnc(SC)nc3)nc(N3CCC(N)C3)c12 (stereo not shown) [4.199] | – | – | ≤0.5 µg/mL | ≤0.5 µg/mL | – |
| CNc1cc(F)cc2c1[nH]c1nc(Oc3cnc(COC)nc3)nc(N3CC4CC(N)C4C3)c12 (stereo not shown) [4.344] | ≤ 0.5 µg/mL | 2 µg/mL (≈ 4.31 µM) | – | – | – |
| Cc1ncc(Oc2nc(N3C[C@H](N)C4(CC4)C3)c3c(n2)[nH]c2c(N(C)C(=O)CN)cc(F)cc23)cn1 [4.426] | 8 µg/mL (≈ 16.3 µM) | > 16 µg/mL | – | – | – |
| CNc1cc(F)cc2c1[nH]c1nc(Oc3cnc(C)nc3)nc(N3CC[C@@H](N)C3)c12 [4.070] | ≤ 0.5 µg/mL | 1 µg/mL (≈ 2.45 µM) | – | – | – |
| CNc1cc(F)cc2c1[nH]c1nc(Oc3cnc(CF)nc3)nc(N3C[C@H]4CC3C[C@H]4N)c12 [4.443] | ≤ 0.5 µg/mL | ≤ 0.5 µg/mL | – | – | – |
| CNc1cc(F)cc2c1[nH]c1nc(Oc3cnc(C)nc3)nc(N3CC(C4(N)CC4)C3)c12 [4.080] | – | – | ≤0.5 µg/mL | 1 µg/mL (≈ 2.3 µM) | – |
| COc1cccc2c1[nH]c1nc(Oc3cnc4cccnc4c3)nc(N3CC4C(N)C4C3)c12 (stereo not shown) [2.14] | – | – | 1 µg/mL (≈ 2.28 µM) | >64 µg/mL | – |
| CNc1cc(F)cc2c1[nH]c1nc(Oc3cnc(C(C)(C)C)nc3)nc(N3CC4CC3C[C@H]4N)c12 (stereo partly shown) [4.441] | ≤ 0.5 µg/mL | ≤ 0.5 µg/mL | – | – | – |
| CNc1cc(F)cc2c1[nH]c1nc(Oc3cnc(C(C)(C)O)nc3)nc(N3CC4C[C@@H](N)C4C3)c12 (stereo partly shown) [4.412] | ≤ 0.5 µg/mL | ≤ 0.5 µg/mL | – | – | – |
| CNc1cc(F)cc2c1[nH]c1nc(Oc3ccc4c(c3)C(=O)NCC4)nc(N3CC4C(N)C4C3)c12 (stereo not shown) [4.301] | – | – | ≤0.5 µg/mL | 1 µg/mL (≈ 2.11 µM) | – |
